Measured values: the supplement of paper PMC10307832

Legend:
Test in all cases: relative viability (nuclei count vs DMSO), 5 days (fraction); higher = more cells survive
[1] = compound: O=C(CCCCCCNC(=O)c1cnc(N(c2ccccc2)c2ccccc2)nc1)NO [Ricolinostat] + CC(=O)c1c(C)c2cnc(Nc3ccc(N4CCNCC4)cn3)nc2n(C2CCCC2)c1=O [Palbociclib] (partner 0.5 µM)
How it was run: (§1)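 Relative viability divides the nuclei count in treated wells by that in vehicle wells. Lung cancer cell lines were seeded in 1536-well plates, dosed by pin tool the next day, and fixed and stained after 5 days in one step with final 0.05% Triton X-100, 1% formaldehyde and 1 ug/ml Hoechst. Dosing was a single drug or a fixed anchor-drug dose plus five library-drug doses (not always all listed) in √10 steps, and values are medians of duplicate plates imaged at 4×.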

[2] = compound: O=C(CCCCCCNC(=O)c1cnc(N(c2ccccc2)c2ccccc2)nc1)NO [Ricolinostat] + CC(=O)Nc1cccc(-n2c(=O)n(C3CC3)c(=O)c3c(Nc4ccc(I)cc4F)n(C)c(=O)c(C)c32)c1 [Trametinib] (partner 0.02 µM)
How it was run: as §1

[3] = compound: C1=CC=C(C(=C1)C2=CC=C(C=C2)C3=CSC4=C3C(=C(C(=O)N4)C#N)O)O + CS(=O)(=O)CCNCc1ccc(-c2ccc3ncnc(Nc4ccc(OCc5cccc(F)c5)c(Cl)c4)c3c2)o1 [Lapatinib] (partner 2 µM)
How it was run: as §1

[4] = compound: O=C(CCCCCCNC(=O)c1cnc(N(c2ccccc2)c2ccccc2)nc1)NO [Ricolinostat] + C[C@@H](Oc1cc(-c2cnn(C3CCNCC3)c2)cnc1N)c1c(Cl)ccc(F)c1Cl [Crizotinib] (partner 1 µM)
How it was run: as §1

Row | Cell Line | relative viability ([1]; first compound 0.08 µM) | relative viability ([1]; first compound 0.253 µM) | relative viability ([1]; first compound 0.8 µM) | relative viability ([1]; first compound 2.53 µM) | relative viability ([2]; first compound 0.08 µM) | relative viability ([2]; first compound 0.253 µM) | relative viability ([2]; first compound 0.8 µM) | relative viability ([2]; first compound 2.53 µM) | relative viability ([3]; first compound 0.253 µM) | relative viability ([3]; first compound 0.8 µM) | relative viability ([3]; first compound 2.53 µM) | relative viability ([3]; first compound 8 µM) | relative viability ([4]; first compound 0.08 µM) | relative viability ([4]; first compound 0.253 µM) | relative viability ([4]; first compound 0.8 µM) | relative viability ([4]; first compound 2.53 µM) | relative viability ([3]; first compound 0.08 µM)
1 | NCI-H460 | 0.184 | 0.191 | 0.0967 | 0.0766 | 0.114 | 0.169 | 0.184 | 0.0996 | 1.09 | 0.868 | 1.24 | 0.747 | 1.01 | 0.924 | 0.84 | 0.645 | 
2 | NCI-H520 |  | 0.256 | 0.262 | 0.27 |  | 0.735 | 0.621 | 0.613 | 0.876 | 1.15 | 0.859 | 0.736 |  | 0.667 | 0.707 | 0.782 | 0.602
3 | NCI-H647 | 0.391 | 0.338 | 0.407 | 0.266 | 0.372 | 0.464 | 0.51 | 0.564 | 1.2 | 1.11 | 1.16 | 0.871 | 1.08 | 1.05 | 1.01 | 0.661 | 0.447
4 | NCI-H650 | 0.33 | 0.356 | 0.32 | 0.253 | 0.853 | 0.908 | 0.909 | 0.874 | 1.09 | 0.742 | 1.09 | 0.763 |  | 0.811 | 0.529 | 0.63 | 0.625
5 | NCI-H661 | 0.426 | 0.381 | 0.415 | 0.364 | 0.498 | 0.569 | 0.592 | 0.568 | 0.481 | 0.501 | 0.507 | 0.382 |  | 0.99 | 0.973 | 0.984 | 0.446
